Source: patent publication US4161538A, “Substituted phenylacetic acid derivatives and process for the preparation thereof” (Sankyo Company Limited, priority 1977, dated 1979)
Counter-ions that a name gives are not always drawn.

Key:
carrageenin edema = experiment: Anti-inflammatory activity, carrageenin edema method; assay type: in vivo, Wistar strain rat; details: for inhibition in vivo at 25 mg/kg: Rattus norvegicus, po
From the text: The carrageenin edema method was employed using Wistar strain rat. [C. A. Winter, E. A. Risley, G. W. Nuss; J. Pharmacol. Exp. Therap., 141, 369(1963)]

thermally induced pain = experiment: Analgesic activity, thermally induced pain method; assay type: in vivo, Wistar strain rat; details: for inhibition in vivo at 19 mg/kg: Rattus norvegicus, po, 19 mg/kg P.O.; for Inhibition(%) Analgesic 19 mg/kg (P.O.): rat
From the text: [Y. Iizuka, K. Tanaka; Folia Pharmacol. Jap., 70, 697(1974)]

| SMILES | inhibition in vivo at 25 mg/kg (carrageenin edema; 25 mg/kg P.O.) | inhibition in vivo at 19 mg/kg (thermally induced pain) | Inhibition(%) Anti-inflammatory 25 mg/kg (P.O.) (carrageenin edema; rat, 25 mg/kg P.O.) | Inhibition(%) Analgesic 19 mg/kg (P.O.) (thermally induced pain) | Inhibition(%) Anti-inflammatory (100 mg/kg) (carrageenin edema; rat, 100 mg/kg (P.O.), reference medicine) |
| --- | --- | --- | --- | --- | --- |
| O=C(O)Cc1ccc(CC2CCCC2=NO)cc1 (single isomer, unassigned) [4-(2-Hydroxyiminocyclopentan-1-ylmethyl)phenylacetic Acid] | 49.7% | 54.8% | – | – | – |
| CC(C(=O)O)c1ccc(CC2CCCC2=O)cc1 [2-(4-(2-Oxocyclopentan-1-ylmethyl)phenyl)-propionic acid I-a] [2-[4-(2-Oxocyclopentan-1-ylmethyl)phenyl]-propionic Acid L-Arginine Salt] | – | – | 69.8% | 66.7% | – |
| CC(C(=O)O)c1ccc(CC2CCCC2=O)cc1 (stereo not shown) [2-(4-(2-Oxocyclopentan-1-ylmethyl)phenyl)-propionic acid] [2-[4-(2-Oxocyclopentan-1-ylmethyl)phenyl]-propionic Acid] | – | – | – | 95.8% | – |
| CC(C(=O)O)c1ccc(CC2CCCCC2=NO)cc1 (stereo not shown) [2-[4-(2-Hydroxyiminocyclohexan-1-ylmethyl)phenyl]propionic Acid] | 78.2% | 53.1% | – | – | – |
| CC(C(=O)O)c1ccc(CC2CCCC2=NO)cc1 (stereo not shown) [2-[4-(2-Hydroxyiminocyclopentan-1-ylmethyl)phenyl]propionic Acid] | 67.4% | 70% | – | – | – |
| CC(C(=O)O)c1ccc(CC2CCCCC2=O)cc1 (stereo not shown) [2-[4-(2-Oxocyclohexan-1-ylmethyl)phenyl]-propionic Acid] | 79.9% | 63.3% | – | – | – |
| CC(C(=O)O)c1ccc(CC2CCCC2=O)cc1 (stereo not shown) [2-[4-(2-Oxocyclopentan-1-ylmethyl)phenyl]-propionic Acid] | 51.4% | – | – | – | – |
| O=C(O)Cc1ccc(CC2CCCCC2=O)cc1 (stereo not shown) [4-(2-Oxocyclohexan-1-ylmethyl)phenylacetic Acid] | 35.1% | 45.1% | – | – | – |
| O=C(O)Cc1ccc(CC2CCCC2=O)cc1 (stereo not shown) [4-(2-Oxocyclopentan-1-ylmethyl)phenylacetic Acid] | 65.6% | 42.5% | – | – | – |
| CCCCC1C(=O)N(c2ccccc2)N(c2ccccc2)C1=O [Phenylbutazone, reference compound] | 30.6% | 37% | – | – | 57.4% |
